In ChEMBL document CHEMBL1127887, “Synthesis and in vitro cardiovascular activity of 4-aryl-2,3,3a,4-tetrahydro-1h-pyrrolo[2,1-c][1,4]benzothiazin-1-ones and 7-acetoxy-6-phenyl-7a,8,9,10-tetrahydropyrrolo [2,1,-d][1,5]benzothiazepin-10-one” (Bioorg Med Chem Lett, 1994):

What was measured:
[1] = species: Cavia porcellus; assay: Negative chronotropic activity on isolated guinea pig right atrium at 5x10E-5 mol/L concentration was determined; assay type: functional, Cardiac atrium
[2] = species: Cavia porcellus; assay: Negative inotropic activity on isolated guinea pig left atrium at 10E-4 mol/L concentration was determined; assay type: functional, Cardiac atrium
[3] = species: Cavia porcellus; assay: Negative inotropic potency on isolated guinea pig left atrium; assay type: functional, Cardiac atrium
[4] = species: Cavia porcellus; assay: Calcium antagonist activity on K+ depolarized guinea pig aortic strips at 10E-4 mol/L concentration was determined; assay type: functional; conditions: Aorta
[5] = species: Cavia porcellus; assay: Calcium antagonist potency on K+ depolarized guinea pig aortic strips; assay type: functional; conditions: Aorta
[6] = biological target: T1, Voltage-gated L-type calcium channel (Rattus norvegicus, UniProt P22002+Q02485+P27732); assay: Displacement of [3H]nitrendipine from calcium channel receptors (CCRs); assay type: protein assay
[7] = biological target: T1, Voltage-gated L-type calcium channel; assay: Inhibitory constant against calcium channel receptors (CCRs); assay type: protein assay
[8] = biological target: T1, Voltage-gated L-type calcium channel; assay: Displacement of [3H]nitrendipine from calcium channel receptors (CCRs) from rat cortex homogenate
[9] = biological target: T1, Voltage-gated L-type calcium channel; assay: Inhibitory constant against calcium channel receptors (CCRs) from rat cortex homogenate

COc1ccc(C2Sc3ccccc3N3C(=O)CCC23)cc1 (stereo unspecified)
Decrease [1]: 39%
Decrease [2]: 60%
ED50 [3]: 1.2 uM l-1
inhibition at 100 µM [4]: 32%
IC50 [5]: 16.6 µM
IC50 [6]: 1.8 µM
Ki [7]: 0.675 µM

O=C1CCC2C(c3ccccc3)Sc3ccccc3N12 (stereo unspecified)
Decrease [1]: 20%
Decrease [2]: 66%
ED50 [3]: 0.23 uM l-1
inhibition at 100 µM [4]: 37%
IC50 [5]: 20 µM
IC50 [8]: 0.00078 µM
Ki [9]: 0.00029 µM

CC(=O)OC1=C(c2ccccc2)Sc2ccccc2N2C(=O)CCC12 (stereo unspecified)
Decrease [1]: 27%
Decrease [2]: 96%
ED50 [3]: 1.1 uM l-1
inhibition at 100 µM [4]: 26%
IC50 [5]: 32.4 µM
IC50 [6]: 1.55 µM
Ki [7]: 0.581 µM

COc1ccc([C@@H]2Sc3ccccc3N(CCN(C)C)C(=O)[C@@H]2OC(C)=O)cc1 [DILTIAZEM]
Decrease [1]: 94%
Decrease [2]: 78%
ED50 [3]: 0.79 uM l-1
inhibition at 100 µM [4]: 88%
IC50 [5]: 2.6 µM
